Columns and labels:
[1] = tested on: membrane protein from CHO-M1; assay: Binding of enzyme donor-GTP gamma-S conjugate to membrane protein (open/close readings); details: 1 hr
Method: 20 ul of membrane protein (10 ug from CHO-M1) in a binding buffer (50 mM HEPES, 20 mM NaCl, 10 mM MgCl2, with 1 mM DTT or 0.01% CHAPS) was incubated with 10 ul of enzyme donor-GTP gamma-S conjugate at various concentrations for 60 minutes at ambient temperature. 10 ul of enzyme acceptor (0.18 uM) and 15 ul of the chemiluminescent reagent, Galacton Star with Emerald plus (Applied Biosystems, Foster city, Calif.) added and the microtiter plate read on the Lumicount (Packard, Meridien, Conn.). The readings are tabulated below with ED46 mer used as control. Open and Close refer to free and bound enzyme donor conjugate to enzyme acceptor. Percentage inhibition is calculated by (open-close)/open readings.

[2] = tested on: membrane protein from CHO-M1; assay: Modulation of enzyme donor-GTP gamma-S conjugate inhibition by GTP gamma-S; assay type: binding; details: 1 hr; for % I: absence of GTP-gamma-S; for GTP-r-S (reading): membrane preincubated with GTP gamma-S
Method: In order to test if the inhibition was capable of being modulated. The experiments were performed by incubating the membrane preparation with GTPgamma-S (10 ul of 10 uM). Higher concentrations of enzyme donor together with another detergent saponin were tried to enhance signal and minimize non-specific binding.
10 ul of membrane protein (10 ug from CHO-M1) in a binding buffer (50 mM HEPES, 20 mM NaCl, 10 mM MgCl2, with 0.01% CHAPS or 0.01% saponin) was incubated with 10 ul of GTP gamma-S for 30 minutes at room temperature 10 ul of the enzyme donor conjugate at various concentrations was added and the mixture incubated for 60 minutes at ambient temperature. 10 ul of enzyme acceptor (0.45 uM) and 15 ul of the chemiluminescent reagent, Galacton Star with Emerald plus (Applied Biosystems, Foster city, Calif.) added and the microtiter plate read on the Lumicount (Packard, Meridien, Conn.). The readings are tabulated below with ED46 mer used as control. Open and close refer to free and bound enzyme donor conjugate to enzyme acceptor. Percentage inhibition is calculated by (open-close)/open readings and is in the absence of GTP-gamma-S.

[3] = Buffer with 0.01% CHAPS, 0.5 nM
[4] = Buffer with 0.01% Saponin, 0.5 nM
[5] = Buffer with 0.01% Saponin, 5 nM
[6] = Buffer with 0.01% Saponin, 10 nM
[7] = Buffer with 0.01% Saponin, 25 nM
[8] = Buffer with 0.01% Saponin, 50 nM

Sequence: SLAVVLQRRDWENPGVTQLNKLAAHPPFASWRNSEEARTDCPSQQL [45+1 mer, 46 mer enzyme donor fragment]
- % I ([1]; Binding buffer wCHAPS, 0.1 nM): 10.0%
- close ([1]; Binding buffer wCHAPS, 0.1 nM): 1706
- open ([1]; Binding buffer wCHAPS, 0.1 nM): 1895
- % I ([1]; Binding buffer wCHAPS, 0.5 nM): 3.9%
- close ([1]; Binding buffer wCHAPS, 0.5 nM): 1846
- open ([1]; Binding buffer wCHAPS, 0.5 nM): 1921
- % I ([1]; Binding buffer wCHAPS, 5 nM): 1.7%
- close ([1]; Binding buffer wCHAPS, 5 nM): 3383
- open ([1]; Binding buffer wCHAPS, 5 nM): 3442
- % I ([1]; Binding buffer wCHAPS, 10 nM): 6.0%
- close ([1]; Binding buffer wCHAPS, 10 nM): 5017
- open ([1]; Binding buffer wCHAPS, 10 nM): 5339
- % I ([1]; Binding buffer wDTT, 0.1 nM): 16.8%
- close ([1]; Binding buffer wDTT, 0.1 nM): 1357
- open ([1]; Binding buffer wDTT, 0.1 nM): 1632
- % I ([1]; Binding buffer wDTT, 0.5 nM): 15.2%
- close ([1]; Binding buffer wDTT, 0.5 nM): 1338
- open ([1]; Binding buffer wDTT, 0.5 nM): 1579
- % I ([1]; Binding buffer wDTT, 5 nM): 6.8%
- close ([1]; Binding buffer wDTT, 5 nM): 2372
- open ([1]; Binding buffer wDTT, 5 nM): 2544
- % I ([1]; Binding buffer wDTT, 10 nM): 12.6%
- close ([1]; Binding buffer wDTT, 10 nM): 3502
- open ([1]; Binding buffer wDTT, 10 nM): 4006
- % I ([1]; Binding buffer, 0.1 nM): 5.8%
- close ([1]; Binding buffer, 0.1 nM): 1773
- open ([1]; Binding buffer, 0.1 nM): 1882
- % I ([1]; Binding buffer, 0.5 nM): −2.3%
- close ([1]; Binding buffer, 0.5 nM): 1940
- open ([1]; Binding buffer, 0.5 nM): 1896
- % I ([1]; Binding buffer, 5 nM): −1.1%
- close ([1]; Binding buffer, 5 nM): 2952
- open ([1]; Binding buffer, 5 nM): 2921
- % I ([1]; Binding buffer, 10 nM): 6.7%
- close ([1]; Binding buffer, 10 nM): 4176
- open ([1]; Binding buffer, 10 nM): 4474
- % M [2, 3]: −1.6%
- close [2, 3]: 353
- open [2, 3]: 322
- % I [2, 3]: −9.7%
- GTP-r-S (reading) [2, 3]: 348
- % M ([2]; Buffer with 0.01% CHAPS, 5 nM): 10.2%
- close ([2]; Buffer with 0.01% CHAPS, 5 nM): 1318
- open ([2]; Buffer with 0.01% CHAPS, 5 nM): 1214
- % I ([2]; Buffer with 0.01% CHAPS, 5 nM): −8.6%
- GTP-r-S (reading) ([2]; Buffer with 0.01% CHAPS, 5 nM): 1468
- % M ([2]; Buffer with 0.01% CHAPS, 10 nM): 6.1%
- close ([2]; Buffer with 0.01% CHAPS, 10 nM): 3265
- open ([2]; Buffer with 0.01% CHAPS, 10 nM): 2971
- % I ([2]; Buffer with 0.01% CHAPS, 10 nM): −9.9%
- GTP-r-S (reading) ([2]; Buffer with 0.01% CHAPS, 10 nM): 3478
- % M ([2]; Buffer with 0.01% CHAPS, 25 nM): −1.4%
- close ([2]; Buffer with 0.01% CHAPS, 25 nM): 10782
- open ([2]; Buffer with 0.01% CHAPS, 25 nM): 8526
- % I ([2]; Buffer with 0.01% CHAPS, 25 nM): −26.5%
- GTP-r-S (reading) ([2]; Buffer with 0.01% CHAPS, 25 nM): 10634
- % M ([2]; Buffer with 0.01% CHAPS, 50 nM): 4.5%
- close ([2]; Buffer with 0.01% CHAPS, 50 nM): 18587
- open ([2]; Buffer with 0.01% CHAPS, 50 nM): 17367
- % I ([2]; Buffer with 0.01% CHAPS, 50 nM): −7.0%
- GTP-r-S (reading) ([2]; Buffer with 0.01% CHAPS, 50 nM): 19466
- % M [2, 4]: 19.6%
- close [2, 4]: 228
- open [2, 4]: 215
- % I [2, 4]: −6.4%
- GTP-r-S (reading) [2, 4]: 284
- % M [2, 5]: 20.2%
- close [2, 5]: 827
- open [2, 5]: 763
- % I [2, 5]: −8.3%
- GTP-r-S (reading) [2, 5]: 1035
- % M [2, 6]: 11.6%
- close [2, 6]: 2220
- open [2, 6]: 2103
- % I [2, 6]: −5.6%
- GTP-r-S (reading) [2, 6]: 2510
- % M [2, 7]: 10.5%
- close [2, 7]: 6971
- open [2, 7]: 6600
- % I [2, 7]: −5.6%
- GTP-r-S (reading) [2, 7]: 7790
- % M [2, 8]: 8.9%
- close [2, 8]: 13597
- open [2, 8]: 13133
- % I [2, 8]: −3.5%
- GTP-r-S (reading) [2, 8]: 14932
